The source of these data is patent publication US8173133B2, “Acyl pseudodipeptides which carry a functionalized auxiliary arm” (OM Pharma, priority 1999, dated 2012).

One data set relates to murine macrophage cells. Kind of data set: nitric oxide production by murine macrophage cells (Griess). As to conditions: for Max concentration: concentration at maximum amplitude; for EC50 conc: concentration corresponding to 50% of maximum amplitude; for Min concentration: lowest concentration inducing a significant response. Type of data set: cell-based, C57/BL6 mice. An excerpt:
Six-week old male C57/BL6 mice are killed by CO2 inhalation. The hip, femur, tibia and posterior appendage bones are removed. The bone marrow is extracted from the bone lumen by injecting Dulbecco's Modified Eagle Medium (DH medium) from the end portions which had been excised. The stem cells are washed and resuspended (approximate cell concentration 4000 cells/ml) in DH medium supplemented with 20% equine serum (SH) and 30% L929 cell supernatant. L929 is a murine fibroblast cell line the supernatant fluid of which is rich in growth factor for macrophage cells (M-CSF). The cell suspension is divided into Petri dishes which are incubated for 8 days in an incubator at 37° C. under 8% CO2 and a moisture saturated atmosphere.
After 8 days, the stem cells have differentiated into mature macrophage cells. The macrophage cells are scraped off by rapid cooling, washed and resuspended in DH medium supplemented with 5% foetal calf serum (FCS), amino acids and antibiotics. The cell density is adjusted to 700 000 cells/ml.
Products previously dissolved in DH medium supplemented with 5% FCS, amino acids and antibiotics are serially diluted directly in microtiter plates. The products are tested in triplicates and each microtiter plate comprises a negative control containing plain medium. The final volume in each well is 100 μl.
100 μl of cell suspension are added to diluted solutions of such products and the cells are incubated for 22 hours in an incubator at 37° C., under 8% CO2 and a moisture saturated atmosphere. At the end of the incubation period with the products, 100 μl of supernatant are withdrawn and the nitrite concentration is determined by running a Griess reaction.
100 μl of Griess reagent (5 mg/ml of sulfanilamide+0.5 mg/ml of N-(1-naphtylethylene diamine hydrochloride)) in 2.5% aq. phosphoric acid, are added to each well. The microtiter plates are read with a spectrophotometer at 562 nm wavelength against a reference sample at 690 nm. The nitrite concentration is proportional to nitric oxide content being formed. The nitrite content is determined based on a standard curve.
The results are given as mean value±standard deviation and plotted as a dose versus response curve.
From this dose versus response curve, 3 curve variables are computed:
Max: maximum curve amplitude and corresponding concentration
EC50: concentration corresponding to 50% of maximum amplitude
Min: lowest concentration inducing a significant proliferation corresponding to the blank±3× standard deviation value
Concentration values corresponding to EC50 and Min are determined from line segments joining different points on the curve.
If the curve has no plateau phase but an ascending configuration for the highest concentration being tested, a “>” sign is shown before “Max” and “EC50” values.

In data set [1] the test system is human peripheral blood mononuclear cells. In words: α TNF production by human peripheral blood mononuclear cells. Conditions: for α TNF produced: 18 hours; for α TNF production: up to 100 μg/ml. Type of data set: cell-based. The method, then:
Mononuclear cells of peripheral blood are recovered from buffy coats of 6 healthy donors. Such buffy coat cells are resuspended and mononuclear cells are isolated by centrifugation on a Ficoll-Paque gradient (Amersham Pharmacia). Purified mononuclear cells are resuspended into RPMI-1640 medium supplemented with 10% FCS, antibiotics, mercaptoethanol and L-glutamine. Cell concentration is adjusted to 2×10^6 viable cells/ml
100 μl of each one of these solutions of acyl dipeptide-like compounds bearing an accessory functional side chain spacer, diluted 100-, 10- or 1-fold in RPMI medium 1640, are dispensed into a microtiter plate. Samples are tested in triplicates, and each microtiter plate includes a negative control made up of plain medium. Dilutions of E. coli LPS (ranging grom 1 to 0.00001 μg/ml) are used as a positive control.
100 μl of the cell suspension are added to each well containing product dilute solutions or control. Cells are incubated with the products for 18 hours in an incubator at 37° C., under 5% CO2 and a moisture saturated atmosphere.
At the end of the incubation period, microtiter plates are centrifuged, and the supernatant fluids are pooled and frozen at −80° C. as aliquots until time of ELISA assay.
Concentration of α TNF secreted by mononuclear cells is determined by chemiluminescent ELISA (QuantiGlo #QTAOO R&D kit). 4-fold supernatant fluid dilutions are dispensed into each well of the microtiter plate to which anti-αTNF antibodies are bound. The microtiter plate is incubated for 4 hours at room temperature. After washing, peroxidase-conjugated anti-human a TNF antibody is added. Following a 2 hour incubation period and thorough washing, a chemiluminescent substrate is added and chemilunescence is read after 20 minutes. α TNF content in the supernatant fluid is determined with respect to a standard curve covering the 7000 to 0.7 pg/ml range.
Results are expressed in pg/ml of α TNF produced. Results derive from an experiment representative of acyl-dipeptide-like compound activity

The test system of data set [2] is Limulus Amoebocyte Lysate.

Converted amounts (≈) assume the structure as drawn.

In the data set with murine macrophage cells, `CCCCCCCCCCCC(=O)O[C@H](CCCCCCCCCCC)CC(=O)N[C@H](CC(=O)O)C(=O)NCCC[C@H](COP(=O)(O)O)NC(=O)C[C@H](O)CCCCCCCCCCC` [OM-197-MC-MP, N—[(R)-3-dodecanoyloxytetradecanoyl]-D-aspartic acid, α-N-{(4R)-5-dihydroxyphosphoryloxy-4-[(R)-3-hydroxytetradecanoyl-amino]pentyl}amide] returned a Max concentration of 51 µg/mL, an EC50 conc of 1.18 mg/L (≈ 1.24 µM) and a Min concentration of 0.11 µg/mL. Moreover, the “concentration at which a significant α TNF production level is induced” value in data set [1] (only at this concentration) turned out to be 100 µg/mL. In addition, the “α TNF produced” value in data set [1] (product 1 μg/ml) is 0 pg/mL. Further, in data set [1] (product 10 μg/ml), the “α TNF produced” value was 0 pg/mL. The “α TNF produced” value in data set [1] (product 100 μg/ml) was found to be 72 pg/mL. In data set [2], the “LAL EU/mg of product” value is on record as 210.5 EU/mg of product and the “LAL ng of LPS equivalent per mg of product” value (from here on “LAL ng … per mg of product”) is 16.8 ng of LPS equivalent per mg of product.
In the data set with murine macrophage cells, `CCCCCCCCCCCC(=O)O[C@H](CCCCCCCCCCC)CC(=O)N[C@H](CC(=O)O)C(=O)NCCC[C@H](COC(=O)CCCCCNC(=O)CCC(=O)O)NC(=O)C[C@H](O)CCCCCCCCCCC` [OM-197-MC-AC-Succ, N—[(R)-3-dodecanoyloxytetradecanoyl]-D-aspartic acid, α-N-{(4R)-5-(6-succinylamidohexanoxyloxy)-4[(R)-3-hydroxy-tetradecanoylamino]pentyl}amide] registered a Max concentration greater than 16 µg/mL, an EC50 conc of 0.72 mg/L (≈ 0.666 µM) and a Min concentration of 0.28 µg/mL. For the same molecule, the “α TNF produced” value in data set [1] (product 1 μg/ml) stood at 0 pg/mL. In data set [1] (product 10 μg/ml), the “α TNF produced” value worked out at 32 pg/mL. Further, the “α TNF produced” value in data set [1] (product 100 μg/ml) stood at 40 pg/mL. Further, in data set [2], the “LAL EU/mg of product” value is <0.05 EU/mg of product and the “LAL ng … per mg of product” value is listed as <0.004 ng of LPS equivalent per mg of product.
In the data set on murine macrophage cells, `CCCCCCCCCCCC(=O)O[C@H](CCCCCCCCCCC)CC(=O)NC(CCOP(=O)(O)O)C(=O)NCCCC(COC(=O)CCCCCO)NC(=O)C[C@H](O)CCCCCCCCCCC` (stereo partly drawn) [OM-197-FV8, 3-[(R)-3-dodecanoyloxytetradecanoylamino]-4-oxo-5-aza-9-[(R)-3-hydroxytetradecanoylamino]-decan-1,10-diol 1-dihydrogenphosphate 10-(6-hydroxyhexanoate)] returned a Max concentration of 51 µg/mL, an EC50 conc of 7.89 mg/L (≈ 7.53 µM) and a Min concentration of 1.45 µg/mL. Also, the “α TNF produced” value in data set [1] (product 1 μg/ml) came out at 12 pg/mL. Further, the “α TNF produced” value in data set [1] (product 10 μg/ml) is 100 pg/mL. Also, the “α TNF produced” value in data set [1] (product 100 μg/ml) came out at 252 pg/mL. In data set [2], the “LAL EU/mg of product” value is 1820 EU/mg of product and the “LAL ng … per mg of product” value is recorded as 145.6 ng of LPS equivalent per mg of product.
`CCCCCCCCCCC[C@@H](O)CC(=O)N[C@H](CCCNC(=O)[C@@H](CC(=O)O)NC(C)=O)COC(=O)CCCCCN` [OM-197-N′C2-MC-AC, N-acetyl-D-aspartic acid, α-N-{(4R)-5-(6-aminohexanoyloxy)-4-[(R)-3-hydroxytetradecanoylamino]-pentyl}amide] yielded a Max concentration in the data set with murine macrophage cells of 200 µg/mL. The “α TNF produced” value in data set [1] (product 1 μg/ml), in data set [1] (product 10 μg/ml) and in data set [1] (product 100 μg/ml) was 0 pg/mL in each case. Moreover, in data set [1], the “α TNF production” value was “do not induce any αTNF production”. Moreover, the “LAL EU/mg of product” value in data set [2] is <0.5 EU/mg of product. In addition, the “LAL ng … per mg of product” value in data set [2] is given as <0.04 ng of LPS equivalent per mg of product.
In the data set with murine macrophage cells, `CCCCCCCCCCCC(=O)O[C@H](CCCCCCCCCCC)CC(=O)N[C@H](CC(=O)O)C(=O)NCCC[C@H](COC(=O)CCCCCO)NC(=O)C[C@H](O)CCCCCCCCCCC` [OM-197-MC-FV7, N—[(R)-3-dodecanoyloxytetradecanoylamino]-D-aspartic acid, α-N-{(4R)-5-hydroxy-4-[(R)-3-hydroxytetradecanoylamino]pentyl}amide 5-O-(6-hydroxyhexanoate)] registered a Max concentration greater than 25.6 µg/mL, an EC50 conc greater than 3.70 mg/L and a Min concentration of 0.36 µg/mL. The “α TNF produced” value in data set [1] (product 1 μg/ml) amounted to 0 pg/mL. For the same molecule, in data set [1] (product 10 μg/ml), the “α TNF produced” value was 80 pg/mL. For the same molecule, the “α TNF produced” value in data set [1] (product 100 μg/ml) turned out to be 76 pg/mL. In data set [2], the “LAL EU/mg of product” value is listed as <0.05 EU/mg of product and the “LAL ng … per mg of product” value is listed as <0.004 ng of LPS equivalent per mg of product.
With `CCCCCCCCCCC[C@@H](O)CC(=O)N[C@H](CCCNC(=O)[C@@H](CC(=O)O)NC(=O)C(CCCCCC)OC(=O)CCCCCCCCC)COC(=O)CCCCCN` (stereo partly drawn) [OM-197-N′(C10-20C8)-MC-AC, N-(2-decanoyloxyoctanoyl)-D-aspartic acid, α-N-{(4R)-5-(6-aminohexanoyloxy)-4-[(R)-3-hydroxytetradecanoylamino]-pentyl}amide], in the data set with murine macrophage cells, the “nitric oxide production” value is “minor production”, the Max concentration was greater than 100 µg/mL, the EC50 conc was found to be 61.05 mg/L (≈ 70.2 µM) and the Min concentration was 54.3 µg/mL. In addition, the “α TNF produced” value in data set [1] (product 1 μg/ml) came to 0 pg/mL. Also, the “α TNF produced” value in data set [1] (product 10 μg/ml) was 0 pg/mL. Besides, in data set [1] (product 100 μg/ml), the “α TNF produced” value turned out to be 0 pg/mL. For the same molecule, the “α TNF production” value in data set [1] is recorded as “do not induce any αTNF production”. Besides, in data set [2], the “LAL EU/mg of product” value is <0.5 EU/mg of product and the “LAL ng … per mg of product” value is given as <0.04 ng of LPS equivalent per mg of product.
In the data set on murine macrophage cells, `CCCCCCCCCCCC(=O)O[C@H](CCCCCCCCCCC)CC(=O)N[C@@H](CCOP(=O)(O)O)C(=O)NCCC[C@H](COC(=O)CCCCCO)NC(=O)C[C@H](O)CCCCCCCCCCC` [OM-197-MP-AC (S, R), (3S,9R)-3-[(R)-3-dodecanoyloxytetradecanoylamino]-4-oxo-5-aza-9-[(R)-3-hydroxytetradecanoylamino]-1,10-diol 1-dihydrogenphosphate 10-(6-hydroxyhexanoate)] gave a Max concentration of 40 µg/mL, an EC50 conc of 3.28 mg/L (≈ 3.13 µM) and a Min concentration of 0.59 µg/mL. Moreover, in data set [1] (product 1 μg/ml), the “α TNF produced” value stood at 488 pg/mL. Also, in data set [1] (product 10 μg/ml), the “α TNF produced” value came to 124 pg/mL. Moreover, the “α TNF produced” value in data set [1] (product 100 μg/ml) was determined as 80 pg/mL. For the same molecule, in data set [2], the “LAL EU/mg of product” value is reported as <0.125 EU/mg of product and the “LAL ng … per mg of product” value is listed as <0.01 ng of LPS equivalent per mg of product.
